Source: PubChem BioAssay AID1259407 (Chemical Carcinogenesis Research Information System (CCRIS), 2018)
The source made the active and inactive calls. How the calls were made is not given here.

System: CCRIS mutagenicity, Ames/micronucleus/aberration tests
Assay: CCRIS mutagenicity studies
[1] = Test System: AMES SALMONELLA TYPHIMURIUM, Strain/Indicator: TA98, Metabolic Activation: NONE, Method: STANDARD PLATE
[2] = Test System: AMES SALMONELLA TYPHIMURIUM, Strain/Indicator: TA98, Metabolic Activation: RAT, LIVER, S-9, AROCLOR 1254, Method: STANDARD PLATE
[3] = Test System: AMES SALMONELLA TYPHIMURIUM, Strain/Indicator: TA100, Metabolic Activation: NONE, Method: STANDARD PLATE
[4] = Test System: AMES SALMONELLA TYPHIMURIUM, Strain/Indicator: TA100, Metabolic Activation: RAT, LIVER, S-9, AROCLOR 1254, Method: STANDARD PLATE
[5] = Test System: AMES SALMONELLA TYPHIMURIUM, Strain/Indicator: TA100, Metabolic Activation: NONE, Method: PREINCUBATION

Measured: mutagenic call

C[C@H]1CCC[C@@]2(C)CCCC[C@]12O
inactive: [1] inactive; negative | [2] inactive; negative | [3] inactive; negative | [4] inactive; negative

O=C(O)CCc1c[nH]c2ccccc12
inactive: [5] inactive; negative

Nc1cc(N)cc(C(=O)O)c1
inactive: End Point: IN VITRO CHROMOSOMAL ABERRATIONS, Test System: CHL CELLS, Metabolic Activation: RAT, LIVER, S-9, SODIUM PHENOBARBITAL AND 5,6-BENZOFLAVONE inactive; negative | End Point: IN VITRO MICRONUCLEUS, Test System: CHL/IU CELLS, Metabolic Activation: RAT, LIVER, S-9, PHENOBARBITAL AND 5,6-BENZOFLAVONE inactive; negative
active: Test System: UDS RODENT HEPATOCYTES, Strain/Indicator: THY INCORP (NON-S-PHASE), Metabolic Activation: NONE, Method: AUTORADIOGRAPHY active; positive

O=C(COc1cc(Cl)c(Cl)cc1Cl)N[C@@H](Cc1c[nH]c2ccccc12)C(=O)O
inactive: Test System: AMES SALMONELLA TYPHIMURIUM, Strain/Indicator: TA97, Metabolic Activation: NONE, Method: STANDARD PLATE inactive; negative | Test System: AMES SALMONELLA TYPHIMURIUM, Strain/Indicator: TA97, Metabolic Activation: RAT, LIVER, S-9, AROCLOR 1254, Method: STANDARD PLATE inactive; negative | [1] inactive; negative | [2] inactive; negative | [3] inactive; negative | [4] inactive; negative | Test System: AMES SALMONELLA TYPHIMURIUM, Strain/Indicator: TA1535, Metabolic Activation: NONE, Method: STANDARD PLATE inactive; negative | Test System: AMES SALMONELLA TYPHIMURIUM, Strain/Indicator: TA1535, Metabolic Activation: RAT, LIVER, S-9, AROCLOR 1254, Method: STANDARD PLATE inactive; negative | Test System: AMES SALMONELLA TYPHIMURIUM, Strain/Indicator: TA1538, Metabolic Activation: NONE, Method: STANDARD PLATE inactive; negative | Test System: AMES SALMONELLA TYPHIMURIUM, Strain/Indicator: TA1538, Metabolic Activation: RAT, LIVER, S-9, AROCLOR 1254, Method: STANDARD PLATE inactive; negative

CCCCCCCCCC(=O)OCCN1CCN(CCCN2c3ccccc3Sc3ccc(C(F)(F)F)cc32)CC1
inactive: Test System: AMES SALMONELLA TYPHIMURIUM, Strain/Indicator: TA98, Metabolic Activation: NONE inactive; negative | Test System: AMES SALMONELLA TYPHIMURIUM, Strain/Indicator: TA98, Metabolic Activation: RAT, LIVER, S-9, PHENOBARBITAL AND 5,6-BENZOFLAVONE inactive; negative | [5] inactive; negative | Test System: AMES SALMONELLA TYPHIMURIUM, Strain/Indicator: TA100, Metabolic Activation: RAT, LIVER, S-9, PHENOBARBITAL AND 5,6-BENZOFLAVONE inactive; negative | Test System: AMES SALMONELLA TYPHIMURIUM, Strain/Indicator: TA1535, Metabolic Activation: NONE inactive; negative | Test System: AMES SALMONELLA TYPHIMURIUM, Strain/Indicator: TA1535, Metabolic Activation: RAT, LIVER, S-9, PHENOBARBITAL AND 5,6-BENZOFLAVONE inactive; negative | Test System: AMES SALMONELLA TYPHIMURIUM, Strain/Indicator: TA1537, Metabolic Activation: NONE inactive; negative | Test System: AMES SALMONELLA TYPHIMURIUM, Strain/Indicator: TA1537, Metabolic Activation: RAT, LIVER, S-9, PHENOBARBITAL AND 5,6-BENZOFLAVONE inactive; negative | Test System: E. COLI, Strain/Indicator: WP2 UVRA, Metabolic Activation: NONE inactive; negative | Test System: E. COLI, Strain/Indicator: WP2 UVRA, Metabolic Activation: RAT, LIVER, S-9, PHENOBARBITAL AND 5,6-BENZOFLAVONE inactive; negative

CI
inactive: Test System: AMES SALMONELLA TYPHIMURIUM, Strain/Indicator: TA98, Metabolic Activation: NONE, Method: GAS EXPOSURE inactive; negative | Test System: AMES SALMONELLA TYPHIMURIUM, Strain/Indicator: TA98, Metabolic Activation: RAT, LIVER, S-9, PHENOBARBITAL AND BETA--NAPHTHOFLAVONE, Method: GAS EXPOSURE inactive; negative | Test System: AMES SALMONELLA TYPHIMURIUM, Strain/Indicator: TA1535, Metabolic Activation: NONE, Method: GAS EXPOSURE inactive; negative | Test System: AMES SALMONELLA TYPHIMURIUM, Strain/Indicator: TA1535, Metabolic Activation: RAT, LIVER, S-9, PHENOBARBITAL AND BETA--NAPHTHOFLAVONE, Method: GAS EXPOSURE inactive; negative | Test System: AMES SALMONELLA TYPHIMURIUM, Strain/Indicator: TA1537, Metabolic Activation: NONE, Method: GAS EXPOSURE inactive; negative | Test System: AMES SALMONELLA TYPHIMURIUM, Strain/Indicator: TA1537, Metabolic Activation: RAT, LIVER, S-9, PHENOBARBITAL AND BETA--NAPHTHOFLAVONE, Method: GAS EXPOSURE inactive; negative | Test System: E. COLI, Strain/Indicator: WP2UVRA, Metabolic Activation: NONE, Method: GAS EXPOSURE inactive; negative | Test System: E. COLI, Strain/Indicator: WP2UVRA, Metabolic Activation: RAT, LIVER, S-9, PHENOBARBITAL AND BETA--NAPHTHOFLAVONE, Method: GAS EXPOSURE inactive; negative
active: Test System: AMES SALMONELLA TYPHIMURIUM, Strain/Indicator: TA100, Metabolic Activation: NONE, Method: DESICCATOR active; positive | Test System: AMES SALMONELLA TYPHIMURIUM, Strain/Indicator: TA100, Metabolic Activation: NONE, Method: GAS EXPOSURE active; positive | Test System: AMES SALMONELLA TYPHIMURIUM, Strain/Indicator: TA100, Metabolic Activation: RAT, LIVER, S-9, PHENOBARBITAL AND BETA--NAPHTHOFLAVONE, Method: GAS EXPOSURE active; positive | Test System: AMES SALMONELLA TYPHIMURIUM, Strain/Indicator: TA1535, Metabolic Activation: RAT, LIVER, S-9, Method: SPOT active; positive | Test System: MOUSE LYMPHOMA, Strain/Indicator: L5178Y (TK+/TK-), Metabolic Activation: NONE, Method: SUSPENSION/PLATE active; positive | Test System: MOUSE LYMPHOMA, Strain/Indicator: L5178Y (TK+/TK-), Metabolic Activation: RAT, LIVER, S-9, AROCLOR 1254, Method: SUSPENSION/PLATE active; positive

CC(=O)N(O)c1ccc(O)cc1
active: End Point: IN VITRO MICRONUCLEUS, Test System: RAT KIDNEY FIBROBLAST NRK-49F, Metabolic Activation: NONE active; positive

Nc1ccc2sncc2c1
active: Test System: AMES SALMONELLA TYPHIMURIUM, Strain/Indicator: TA100, Metabolic Activation: S-9, Method: STANDARD PLATE active; positive

C[C@H]1COc2c(N3CCN(C)CC3)c(F)cc3c(=O)c(C(=O)O)cn1c23
inactive: Test System: AMES SALMONELLA TYPHIMURIUM, Strain/Indicator: TA98, Metabolic Activation: NONE, Method: PREINCUBATION inactive; negative | Test System: AMES SALMONELLA TYPHIMURIUM, Strain/Indicator: TA98, Metabolic Activation: RAT, LIVER, S-9, PHENOBARBITAL AND BETA-NAPHTHOFLAVONE, Method: PREINCUBATION inactive; negative | [5] inactive; negative | Test System: AMES SALMONELLA TYPHIMURIUM, Strain/Indicator: TA100, Metabolic Activation: RAT, LIVER, S-9, PHENOBARBITAL AND BETA-NAPHTHOFLAVONE, Method: PREINCUBATION inactive; negative | Test System: AMES SALMONELLA TYPHIMURIUM, Strain/Indicator: TA1535, Metabolic Activation: NONE, Method: PREINCUBATION inactive; negative | Test System: AMES SALMONELLA TYPHIMURIUM, Strain/Indicator: TA1535, Metabolic Activation: RAT, LIVER, S-9, PHENOBARBITAL AND BETA-NAPHTHOFLAVONE, Method: PREINCUBATION inactive; negative | Test System: AMES SALMONELLA TYPHIMURIUM, Strain/Indicator: TA1537, Metabolic Activation: NONE, Method: PREINCUBATION inactive; negative | Test System: AMES SALMONELLA TYPHIMURIUM, Strain/Indicator: TA1537, Metabolic Activation: RAT, LIVER, S-9, PHENOBARBITAL AND BETA-NAPHTHOFLAVONE, Method: PREINCUBATION inactive; negative | Test System: CHINESE HAMSTER OVARY, Strain/Indicator: CHO-K1 (HGPRT)/6-THIOGUANINE, Metabolic Activation: NONE inactive; negative | Test System: CHINESE HAMSTER OVARY, Strain/Indicator: CHO-K1 (HGPRT)/6-THIOGUANINE, Metabolic Activation: RAT, LIVER, S-9, PHENOBARBITAL AND BETA-NAPHTHOFLAVONE inactive; negative | Test System: E.COLI, Strain/Indicator: WP2 UVRA, Metabolic Activation: NONE, Method: PREINCUBATION inactive; negative | Test System: E.COLI, Strain/Indicator: WP2 UVRA, Metabolic Activation: RAT, LIVER, S-9, PHENOBARBITAL AND BETA-NAPHTHOFLAVONE, Method: PREINCUBATION inactive; negative | Test System: UDS RAT HEPATOCYTES, Strain/Indicator: THY INCORP, Metabolic Activation: NONE, Method: IN VIVO-IN VITRO inactive; negative
